The compounds below were run against T1, catalytic domain of human Bub1 (amino acids 704-1085) (Homo sapiens, UniProt O43683) (assay: Bub1 kinase assay (TR-FRET)). Conditions: TR-FRET; ATP 10 μM, peptide substrate 1 μM; 60 min at 22° C.; average or median if tested more than once; read-out: Inhibition of Bub1 kinase IC50.
T1 construct: catalytic domain of human Bub1 (amino acids 704-1085); His6 (N); made in house; host or cells: Hi5 insect cells
Type: biochemical
Description: Bub1-inhibitory activities of compounds described in the present invention were quantified using a time-resolved fluorescence energy transfer (TR-FRET) kinase assay which measures phosphorylation of the synthetic peptide Biotin-Ahx-VLLPKKSFAEPG (C-terminus in amide form), purchased from e.g. Biosyntan (Berlin, Germany) by the (recombinant) catalytic domain of human Bub1 (amino acids 704-1085), expressed in Hi5 insect cells with an N-terminal His6-tag and purified by affinity—(Ni-NTA) and size exclusion chromatography.
In a typical assay 11 different concentrations of each compound (0.1 nM, 0.33 nM, 1.1 nM, 3.8 nM, 13 nM, 44 nM, 0.15 μM, 0.51 μM, 1.7 μM, 5.9 μM and 20 μM) were tested in duplicate within the same microtiter plate. To this end, 100-fold concentrated compound solutions (in DMSO) were previously prepared by serial dilution (1:3.4) of 2 mM stocks in a clear low volume 384-well source microtiter plate (Greiner Bio-One, Frickenhausen, Germany), from which 50 nl of compounds were transferred into a black low volume test microtiter plate from the same supplier. Subsequently, 2 μL of Bub1 (the final concentration of Bub1 was adjusted depending on the activity of the enzyme lot in order to be within the linear dynamic range of the assay: typically ˜200 ng/mL were used) in aqueous assay buffer [50 mM Tris/HCl pH 7.5, 10 mM magnesium chloride (MgCl2), 200 mM potassium chloride (KCl), 1.0 mM dithiothreitol (DTT), 0.1 mM sodium ortho-vanadate, 1% (v/v) glycerol, 0.01% (w/v) bovine serum albumine (BSA), 0.005% (v/v) Trition X-100 (Sigma), 1× Complete EDTA-free protease inhibitor mixture (Roche)] were added to the compounds in the test plate and the mixture was incubated for 15 min at 22° C. to allow pre-equilibration of the putative enzyme-inhibitor complexes before the start of the kinase reaction, which was initiated by the addition of 3 μL 1.67-fold concentrated solution (in assay buffer) of adenosine-tri-phosphate (ATP, 10 μM final concentration) and peptide substrate (1 μM final concentration). The resulting mixture (5 μL final volume) was incubated at 22° C. during 60 min., and the reaction was stopped by the addition of 5 μL of an aqueous EDTA-solution (50 mM EDTA, in 100 mM HEPES pH 7.5 and 0.2% (w/v) bovine serum albumin) which also contained the TR-FRET detection reagents (0.2 μM streptavidin-XL665 [Cisbio Bioassays, Codolet, France] and 1 nM anti-phospho-Serine antibody [Merck Millipore, cat. #35-002] and 0.4 nM LANCE EU-W1024 labeled anti-mouse IgG antibody [Perkin-Elmer, product no. AD0077, alternatively a Terbium-cryptate-labeled anti-mouse IgG antibody from Cisbio Bioassays can be used]). The stopped reaction mixture was further incubated 1 h at 22° C. in order to allow the formation of complexes between peptides and detection reagents. Subsequently, the amount of product was evaluated by measurement of the resonance energy transfer from the Eu-chelate-antibody complex recognizing the Phosphoserine residue to the streptavidin-XL665 bound to the biotin moiety of the peptide. To this end, the fluorescence emissions at 620 nm and 665 nm after excitation at 330-350 nm were measured in a TR-FRET plate reader, e.g. a Rubystar or Pherastar (both from BMG Labtechnologies, Offenburg, Germany) or a Viewlux (Perkin-Elmer) and the ratio of the emissions (665 nm/[…]) was taken as indicator for the amount of phosphorylated substrate. The data were normalised using two sets of control wells for high—(=enzyme reaction without inhibitor=0%=Minimum inhibition) and low—(=all assay components without enzyme=100%=Maximum inhibition) Bub1 activity. IC50 values were calculated by fitting the normalized inhibition data to a 4-parameter logistic equation (Minimum, Maximum, IC50, Hill; Y=Max+(Min−Max)/(1+(X/IC50)Hill)).

T1 sequence (O43683 704-1085): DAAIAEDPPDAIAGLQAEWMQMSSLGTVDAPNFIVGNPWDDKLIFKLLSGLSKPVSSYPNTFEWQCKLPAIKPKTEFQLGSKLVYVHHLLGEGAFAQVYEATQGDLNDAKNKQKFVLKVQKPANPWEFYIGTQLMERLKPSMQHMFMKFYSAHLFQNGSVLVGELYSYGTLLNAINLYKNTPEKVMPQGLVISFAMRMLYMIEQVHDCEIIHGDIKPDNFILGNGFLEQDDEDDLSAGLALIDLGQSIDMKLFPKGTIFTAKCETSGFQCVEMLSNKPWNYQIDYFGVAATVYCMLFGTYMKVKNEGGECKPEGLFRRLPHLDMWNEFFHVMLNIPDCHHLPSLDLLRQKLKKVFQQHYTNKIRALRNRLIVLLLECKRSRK

Row | Structure (SMILES) | IC50 [µM]
1 | COCCOc1cnccc1-c1[nH]c2c(c1Nc1ccccc1)C(=O)CN(C(C)=O)C2 [Example 230, 6-Acetyl-2-[3-(2-methoxyethoxy)pyridin-4-yl]-3-(phenylamino)-1,5,6,7-tetrahydro-4H-pyrrolo[2,3-c]pyridin-4-one] | 0.016
2 | Cc1ccc(F)cc1C(=O)Nc1cc(-c2[nH]c3c(c2Nc2ccccc2)C(=O)CN(C(=O)OC(C)(C)C)C3)ccn1 [Example 268, tert-Butyl 2-2-[(5-fluoro-2-methylbenzoyl)amino]pyridin-4-yl-4-oxo-3-(phenylamino)-1,4,5,7-tetrahydro-6H-pyrrolo[2,3-c]pyridine-6-carboxylate] | 0.058
3 | CC(=O)Nc1cc(-c2[nH]c3c(c2Nc2ccccc2)C(=O)CN(C(=O)c2cocn2)C3)ccn1 [Example 195, N-{4-[3-Anilino-6(1,3-oxazol-4-ylcarbonyl)-4-oxo-4,5,6,7-tetrahydro-1H-pyrrolo[2,3-c]pyridin-2-yl]pyridin-2-yl}acetamide] | 0.024
4 | COCCOc1cnccc1-c1[nH]c2c(c1Nc1ccccc1)C(=O)CNC2 [Example 226, 3-anilino-2-[3-(2-methoxyethoxy)pyridin-4-yl]-1,5,6,7-tetrahydro-4H-pyrrolo[2,3-c]pyridin-4-one] | 0.072
5 | CC(=O)Nc1cc(-c2[nH]c3c(c2Nc2ccccn2)C(=O)CN(C(=O)OC(C)(C)C)C3)ccn1 [Example 310, tert-Butyl 2-(2-acetamidopyridin-4-yl)-4-oxo-3-(pyridin-2-ylamino)-1,4,5,7-tetrahydro-6H-pyrrolo[2,3-c]pyridine-6-carboxylate] | 0.079
6 | O=C1CN(S(=O)(=O)CCC(F)(F)F)Cc2[nH]c(-c3ccncc3)c(Nc3ccccc3)c21 [Example 69, 3-(phenylamino)-2-(pyridin-4-yl)-6-[(3,3,3-trifluoropropyl)sulfonyl]-1,5,6,7-tetrahydro-4H-pyrrolo[2,3-c]pyridin-4-one] | 0.004
7 | O=C1CN(C(=O)NC2CCOCC2)Cc2[nH]c(-c3ccncc3)c(Nc3ccccc3)c21 [Example 96, 4-Oxo-3-(phenylamino)-2-(pyridin-4-yl)-N-(tetrahydro-2H-pyran-4-yl)-1,4,5,7-tetrahydro-6H-pyrrolo[2,3-c]pyridine-6-carboxamide] | 0.055
8 | CN(C)CCOc1cnccc1-c1[nH]c2c(c1Nc1ccccc1)C(=O)CN(S(=O)(=O)N(C)C)C2 [Example 279, 2-3-[2-(Dimethylamino)ethoxy]pyridin-4-yl-N,N-dimethyl-4-oxo-3-(phenylamino)-1,4,5,7-tetrahydro-6H-pyrrolo[2,3-c]pyridine-6-sulfonamide] | 0.006
9 | CCOC(=O)N1CC(=O)c2c([nH]c(-c3ccnc(NC(=O)[C@@H]4C[C@@H]4F)c3)c2Nc2ccccc2)C1 [Example 215, Ethyl 2-[2-([(1S,2S)-2-fluorocyclopropyl]carbonylamino)pyridin-4-yl]-4-oxo-3-(phenylamino)-1,4,5,7-tetrahydro-6H-pyrrolo[2,3-c]pyridine-6-carboxylate] | 0.004
10 | O=C1CN(C(=O)NCC(F)F)Cc2[nH]c(-c3ccncc3)c(Nc3ccccc3)c21 [Example 83, N-(2,2-Difluoroethyl)-4-oxo-3-(phenylamino)-2-(pyridin-4-yl)-1,4,5,7-tetrahydro-6H-pyrrolo[2,3-c]pyridine-6-carboxamide] | 0.012
11 | CNC(=O)N1CC(=O)c2c([nH]c(-c3ccncc3)c2Nc2ccccc2)C1 [Example 81, N-Methyl-4-oxo-3-(phenylamino)-2-(pyridin-4-yl)-1,4,5,7-tetrahydro-6H-pyrrolo[2,3-c]pyridine-6-carboxamide] | 0.004
12 | Cc1cnccc1-c1[nH]c2c(c1Nc1ccccc1)C(=O)COC2 [Example 40, 2-(3-Methylpyridin-4-yl)-3-(phenylamino)-1,7-dihydropyrano[3,4-b]pyrrol-4(5H)-one] | 1.47
13 | CC(=O)Nc1cc(-c2[nH]c3c(c2Nc2ccccc2)C(=O)CN(C(=O)c2ccncc2)C3)ccn1 [Example 116, N-{4-[4-Oxo-3-(phenylamino)-6-(pyridin-4-ylcarbonyl)-4,5,6,7-tetrahydro-1H-pyrrolo[2,3-c]pyridin-2-yl]pyridin-2-yl}acetamide] | 0.026
14 | O=C1CN(C(=O)NC2CC2)Cc2[nH]c(-c3ccncc3)c(Nc3ccccc3)c21 [Example 84, N-Cyclopropyl-4-oxo-3-(phenylamino)-2-(pyridin-4-yl)-1,4,5,7-tetrahydro-6H-pyrrolo[2,3-c]pyridine-6-carboxamide] | 0.009
15 | O=C1CN(C(=O)c2ccccn2)Cc2[nH]c(-c3ccncc3)c(Nc3ccccc3)c21 [Example 61, 3-(phenylamino)-2-(pyridin-4-yl)-6-(pyridin-2-ylcarbonyl)-1,5,6,7-tetrahydro-4H-pyrrolo[2,3-c]pyridin-4-one] | 0.04
16 | CC(=O)Nc1cc(-c2[nH]c3c(c2Nc2ccccc2)C(=O)CN(C(=O)C(C)(C)C)C3)ccn1 [Example 181, N-{4-[3-Anilino-6-(2,2-dimethylpropanoyl)-4-oxo-4,5,6,7-tetrahydro-1H-pyrrolo[2,3-c]pyridin-2-yl]pyridin-2-yl}acetamide] | 0.005
17 | COc1cc(C(=O)Nc2cc(-c3[nH]c4c(c3Nc3ccccc3)C(=O)CN(C(C)=O)C4)ccn2)ccc1F [Example 258] | 0.01
18 | CC(C)S(=O)(=O)N1CC(=O)c2c([nH]c(-c3ccncc3OCC(F)(F)F)c2Nc2ccccc2)C1 [Example 247, 3-(Phenylamino)-6-(propan-2-ylsulfonyl)-2-[3-(2,2,2-trifluoroethoxy)pyridin-4-yl]-1,5,6,7-tetrahydro-4H-pyrrolo[2,3-c]pyridin-4-one] | 0.065
19 | CC(=O)Nc1cc(-c2[nH]c3c(c2Nc2ccccc2)C(=O)CN(C(=O)SC(C)(C)C)C3)ccn1 [Example 301, S-tert-butyl 2-(2-acetamidopyridin-4-yl)-3-anilino-4-oxo-1,4,5,7-tetrahydro-6H-pyrrolo[2,3-c]pyridine-6-carbothioate] | 0.033
20 | CC(=O)Nc1cc(-c2[nH]c3c(c2Nc2ccc(C)cc2)C(=O)CN(C(=O)OC(C)(C)C)C3)ccn1 [Example 295, tert-Butyl 2-(2-acetamidopyridin-4-yl)-3-[(4-methylphenyl)amino]-4-oxo-1,4,5,7-tetrahydro-6H-pyrrolo[2,3-c]pyridine-6-carboxylate] | 0.363
21 | O=C1CNCc2[nH]c(-c3ccnc(NC(=O)[C@@H]4C[C@H]4F)c3)c(Nc3ccccc3)c21 (relative stereo) [Example 142, rel-(1S,2R)—N-[4-(3-Anilino-4-oxo-4,5,6,7-tetrahydro-1H-pyrrolo[2,3-c]pyridin-2-yl)pyridin-2-yl]-2-fluorocyclopropanecarboxamide] | 0.076
22 | Cn1cnc(C(=O)N2CC(=O)c3c([nH]c(-c4ccncc4)c3Nc3ccccc3)C2)c1 [Example 60, 6-[(1-Methyl-1H-imidazol-4-yl)carbonyl]-3-(phenylamino)-2-(pyridin-4-yl)-1,5,6,7-tetrahydro-4H-pyrrolo[2,3-c]pyridin-4-one] | 0.067
23 | CS(=O)(=O)N1CC(=O)c2c([nH]c(-c3ccnc(NC(=O)[C@@H]4C[C@@H]4F)c3)c2Nc2ccccc2)C1 [Example 203] | 0.002
24 | CC(=O)Nc1cc(-c2[nH]c3c(c2Nc2ccccc2)C(=O)CN(C(=O)OC(C)C)C3)ccn1 [Example 185, Isopropyl 2-(2-acetamidopyridin-4-yl)-3-anilino-4-oxo-1,4,5,7-tetrahydro-6H-pyrrolo[2,3-c]pyridine-6-carboxylate] | 0.014

Source: patent US20200216439A1, “HETERO-1,5,6,7-TETRAHYDRO-4H-INDOL-4-ONES” (BAYER PHARMA AKTIENGESELLSCHAFT, priority 2015, published 2020)
